Common to all, as to assay: microbe, parasite or virus in culture
The subject of one assay is T1, S. aureus ATCC 29213.
T1 construct: ATCC 29213
To be noted: Staphylococcus aureus, ATCC29213. How it is done: (§1) MICs were determined by a microdilution broth method as recommended by the CLSI with MHB-II. For MICs of stable analogues, a 2-fold dilution of each compound was prepared in DMSO at 100-fold of the final concentration. The strains were inoculated with 5 × 10^5 cfu/mL in 96-well plates (each 100 μL/well), and 1 μL of DMSO solutions of the samples were added (contained less than 1% DMSO). The plates were incubated at 37 °C for 18 h and then MICs were determined. MICs of stable analogues in Table 1 were the highest value in three trials. MICs in Supplementary Table 1 were determined in one trial.  Fig. 2 Results of biological evaluations of hydrazone library. a General structures of hydrazine fragment moiety are shown. Each hydrazine class are represented by different colours (green; BZ, cyan; PA, grey; AC, yellow; AA, orange; LA). b–h MraY inhibitory activity and antibacterial activity of the hydrazone library. The bar graphs show the relative enzyme activity with DMSO as 100% when the compound is treated at given concentration (b,c; TUN at 100 nM, d,e; MRY at 10 nM, f.g; MRD at 100 nM, h; CAP at 1000 nM. n = 1), with the lower bars indicating higher inhibitory activity. The colour of the bars corresponds to Fig. 2a. […] Data of control compounds (van: vancomycin, col: colistin) are shown left column in each panel. E. faecium ATCC 35667, S. aureus ATCC 29213, P. aeruginosa ATCC 27853, K. pneumoniae ATCC 13883, E. cloacae ATCC 13047, A. baumannii ATCC 19606, E. coli ATCC 25922.

In the next assay the test system is T2, E. faecium ATCC 35667.
T2 construct: ATCC 35667
To be noted: Enterococcus faecium, ATCC35667. How it is done:
as §1

The subject of another assay is T3, E. coli ATCC 25922.
T3 construct: ATCC 25922
To be noted: Escherichia coli, ATCC25922. How it is done:
as §1

Results on 2 compounds are retold here after PMC11178787, “Development of a natural product optimization strategy for inhibitors against MraY, a promising antibacterial target” (Nature Communications, 2024).

≈ marks a conversion by molar mass, not a printed value.

As to `CC1(C)S[C@@H]2[C@H](NC(=O)[C@H](N)c3ccccc3)C(=O)N2[C@H]1C(=O)O` [ampicillin], the MIC is 5 µM (≈ 1.75 µg/mL) against S. aureus ATCC 29213, less than 0.5 µM in the assay on E. faecium ATCC 35667 and 50 µM (≈ 17.5 µg/mL) with E. coli ATCC 25922.

In the case of `CN[C@H](CC(C)C)C(=O)N[C@H]1C(=O)N[C@@H](CC(N)=O)C(=O)N[C@H]2C(=O)N[C@H]3C(=O)N[C@H](C(=O)N[C@H](C(=O)O)c4cc(O)cc(O)c4-c4cc3ccc4O)[C@H](O)c3ccc(c(Cl)c3)Oc3cc2cc(c3O[C@@H]2O[C@H](CO)[C@@H](O)[C@H](O)[C@H]2O[C@H]2C[C@](C)(N)[C@H](O)[C@H](C)O2)Oc2ccc(cc2Cl)[C@H]1O` [vancomycin], the MIC in the assay with S. aureus ATCC 29213 is less than 0.5 µM; against E. faecium ATCC 35667, less than 0.5 µM; against E. coli ATCC 25922 it was greater than 50 µM.
